Source: the NIST ThermoML archive (doi:10.1021/je700580g)
± gives the expanded uncertainty stated by the source.

What was measured:
[1] = refractive index (Na D-line) (dimensionless); conditions: 101.33 kPa, Liquid, Standard Abbe refractometry
[2] = 101.33 kPa, Liquid
[3] = xn = mol fraction of the nth substance listed; conditions: 101 kPa, Liquid

OCCO [1,2-ethanediol]
Conditions | mass density, 293.15 K [kg/m3] | mass density, 303.15 K [kg/m3] | mass density, 313.15 K [kg/m3] | refractive index, 293.15 K | refractive index, 298.15 K
[1] | – | – | – | 1.4323 ± 0.0005 | 1.4309 ± 0.0005
[2] | 1113.37 ± 0.37 | 1106.4 ± 0.35 | 1099.35 ± 0.34 | – | –

OCCO [1,2-ethanediol] + CCCCO
mass density [kg/m3], [3]
Conditions | x1 = 0.08923 | x1 = 0.249 | x1 = 0.3206 | x1 = 0.4019 | x1 = 0.5347 | x1 = 0.6571 | x1 = 0.6974 | x1 = 0.7753 | x1 = 0.81 | x1 = 0.9121
293.15 K | 826.85 ± 0.63 | 861.02 ± 0.55 | 878.11 ± 0.51 | 898.74 ± 0.46 | 936.02 ± 0.38 | 975.06 ± 0.29 | 989.14 ± 0.26 | 1017.69 ± 0.28 | 1030.76 ± 0.31 | 1073.19 ± 0.42
298.15 K | 823.02 ± 0.64 | 857.21 ± 0.56 | 874.25 ± 0.52 | 894.96 ± 0.47 | 932.22 ± 0.39 | 971.34 ± 0.3 | 985.27 ± 0.27 | 1013.86 ± 0.27 | 1027.06 ± 0.3 | 1069.67 ± 0.41
303.15 K | 819.29 ± 0.64 | 853.42 ± 0.57 | 870.64 ± 0.53 | 891.24 ± 0.48 | 928.63 ± 0.4 | 967.77 ± 0.31 | 981.88 ± 0.28 | 1010.51 ± 0.26 | 1023.76 ± 0.3 | 1066.15 ± 0.4
308.15 K | 815.49 ± 0.65 | 849.65 ± 0.57 | 866.86 ± 0.54 | 887.45 ± 0.49 | 924.91 ± 0.41 | 964.18 ± 0.32 | 978.14 ± 0.29 | 1006.95 ± 0.26 | 1020.29 ± 0.29 | 1062.56 ± 0.39
313.15 K | 811.51 ± 0.66 | 845.69 ± 0.58 | 862.94 ± 0.54 | 883.57 ± 0.5 | 921.05 ± 0.41 | 960.49 ± 0.33 | 974.54 ± 0.29 | 1003.28 ± 0.25 | 1016.76 ± 0.28 | 1059.01 ± 0.38

CCCCO [butan-1-ol]
Conditions | mass density, 293.15 K [kg/m3] | mass density, 298.15 K [kg/m3] | mass density, 303.15 K [kg/m3] | mass density, 308.15 K [kg/m3] | mass density, 313.15 K [kg/m3] | refractive index, 293.15 K | refractive index, 298.15 K
[1] | – | – | – | – | – | 1.3997 ± 0.0006 | 1.3978 ± 0.0006
[2] | 809.6 ± 0.46 | 805.84 ± 0.47 | 802.04 ± 0.47 | 798.2 ± 0.48 | 794.31 ± 0.48 | – | –

CCCCCCO [hexan-1-ol]
Conditions | mass density, 293.15 K [kg/m3] | mass density, 298.15 K [kg/m3] | mass density, 303.15 K [kg/m3] | mass density, 308.15 K [kg/m3] | mass density, 313.15 K [kg/m3] | refractive index, 293.15 K | refractive index, 298.15 K
[1] | – | – | – | – | – | 1.4183 ± 0.0007 | 1.4161 ± 0.0007
[2] | 818.74 ± 1.4 | 815.28 ± 1.4 | 811.71 ± 1.4 | 808.13 ± 1.4 | 804.53 ± 1.4 | – | –

CCCCCCO [hexan-1-ol] + OCCO
mass density [kg/m3], [3]
Conditions | x2 = 0.08275 | x2 = 0.1585 | x2 = 0.2374 | x2 = 0.3265 | x2 = 0.4905 | x2 = 0.5445 | x2 = 0.5965 | x2 = 0.6932 | x2 = 0.7757 | x2 = 0.9053
293.15 K | 829.72 ± 1.1 | 840.78 ± 1 | 853.56 ± 0.92 | 869.87 ± 0.84 | 905.8 ± 0.67 | 919.79 ± 0.61 | 934.39 ± 0.55 | 965.41 ± 0.44 | 996.6 ± 0.33 | 1057.08 ± 0.41
298.15 K | 826.21 ± 1.1 | 837.17 ± 1 | 849.99 ± 0.93 | 866.29 ± 0.84 | 902.2 ± 0.67 | 916.19 ± 0.62 | 930.83 ± 0.56 | 961.84 ± 0.45 | 993.11 ± 0.34 | 1053.67 ± 0.4
303.15 K | 822.63 ± 1.1 | 833.58 ± 1 | 846.39 ± 0.93 | 862.69 ± 0.85 | 898.58 ± 0.68 | 912.56 ± 0.62 | 927.24 ± 0.57 | 958.23 ± 0.45 | 989.49 ± 0.35 | 1050.1 ± 0.4
308.15 K | 819.02 ± 1.1 | 829.96 ± 1 | 842.67 ± 0.94 | 859.01 ± 0.85 | 894.88 ± 0.69 | 908.9 ± 0.63 | 923.53 ± 0.57 | 954.54 ± 0.46 | 985.79 ± 0.36 | 1046.52 ± 0.39
313.15 K | 815.44 ± 1.1 | 826.33 ± 1 | 839.04 ± 0.94 | 855.36 ± 0.86 | 891.27 ± 0.69 | 905.23 ± 0.64 | 919.95 ± 0.58 | 950.95 ± 0.47 | 982.18 ± 0.36 | 1042.98 ± 0.38

CCCCCCCCO [octan-1-ol]
Conditions | mass density, 293.15 K [kg/m3] | mass density, 298.15 K [kg/m3] | mass density, 303.15 K [kg/m3] | mass density, 308.15 K [kg/m3] | mass density, 313.15 K [kg/m3] | refractive index, 293.15 K | refractive index, 298.15 K
[1] | – | – | – | – | – | 1.4298 ± 0.0006 | 1.428 ± 0.0006
[2] | 825.12 ± 0.74 | 821.75 ± 0.75 | 818.31 ± 0.75 | 814.8 ± 0.76 | 811.41 ± 0.77 | – | –

CCCCCCCCO [octan-1-ol] + OCCO
mass density [kg/m3], [3]
Conditions | x2 = 0.07997 | x2 = 0.159 | x2 = 0.2159 | x2 = 0.36 | x2 = 0.4825 | x2 = 0.5912 | x2 = 0.6299 | x2 = 0.7437 | x2 = 0.8063 | x2 = 0.8892
293.15 K | 833.01 ± 0.7 | 842 ± 0.68 | 849.21 ± 0.65 | 870.86 ± 0.59 | 894.13 ± 0.53 | 920.03 ± 0.46 | 930.8 ± 0.43 | 968.64 ± 0.33 | 994.57 ± 0.27 | 1036.57 ± 0.34
298.15 K | 829.64 ± 0.71 | 838.63 ± 0.68 | 845.74 ± 0.66 | 867.38 ± 0.6 | 890.64 ± 0.53 | 916.52 ± 0.46 | 927.19 ± 0.44 | 965.11 ± 0.34 | 991.03 ± 0.28 | 1033.02 ± 0.33
303.15 K | 826.15 ± 0.72 | 835.13 ± 0.69 | 842.24 ± 0.67 | 863.92 ± 0.6 | 887.11 ± 0.54 | 912.94 ± 0.47 | 923.7 ± 0.45 | 961.5 ± 0.35 | 987.45 ± 0.29 | 1029.52 ± 0.32
308.15 K | 822.68 ± 0.73 | 831.61 ± 0.7 | 838.76 ± 0.68 | 860.33 ± 0.61 | 883.47 ± 0.55 | 909.33 ± 0.48 | 920.08 ± 0.45 | 957.92 ± 0.36 | 983.8 ± 0.3 | 1025.99 ± 0.32
313.15 K | 819.15 ± 0.73 | 828.07 ± 0.7 | 835.18 ± 0.68 | 856.83 ± 0.62 | 879.91 ± 0.56 | 905.71 ± 0.49 | 916.5 ± 0.46 | 954.32 ± 0.37 | 980.25 ± 0.3 | 1022.37 ± 0.31
